In ChEMBL document CHEMBL3217445, “Optimising pharmacokinetics of glucokinase activators with matched triplicate design sets the discovery of AZD3651 and AZD9485” (Medchemcomm, 2013):
Values after ≈ are worked out from the molar mass of the structure shown. Active and inactive are the calls of the source. No cut-off for these calls is given here.

How the values were obtained:
[1] = Octanol-buffer partition coefficient, log D of the compound at pH 7.4 after 30 mins by shake flask method; type: physicochemical
[2] = Clearance in rat; type: ADME, organism-based; conditions: in vivo
Rattus norvegicus [3] = species: Rattus norvegicus; assay: Unbound clearance in rat; type: ADME, organism-based; conditions: in vivo
Hexokinase-4 = molecular target: T1, Hexokinase-4 (Homo sapiens, UniProt P35557); assay: Activation of glucokinase (unknown origin)
T1 sequence (P35557 whole entry): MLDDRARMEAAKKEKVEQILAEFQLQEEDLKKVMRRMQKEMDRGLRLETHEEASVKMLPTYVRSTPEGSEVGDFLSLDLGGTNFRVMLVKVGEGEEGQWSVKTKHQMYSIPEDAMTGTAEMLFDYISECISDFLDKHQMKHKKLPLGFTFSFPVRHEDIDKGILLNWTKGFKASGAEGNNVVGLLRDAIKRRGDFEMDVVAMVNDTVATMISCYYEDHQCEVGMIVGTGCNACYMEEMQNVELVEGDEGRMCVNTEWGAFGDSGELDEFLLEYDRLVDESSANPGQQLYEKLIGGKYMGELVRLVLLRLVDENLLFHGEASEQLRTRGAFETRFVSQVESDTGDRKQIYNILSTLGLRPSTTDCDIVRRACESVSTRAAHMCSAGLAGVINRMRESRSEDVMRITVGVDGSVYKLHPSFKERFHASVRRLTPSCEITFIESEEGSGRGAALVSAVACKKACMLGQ

[4] = molecular target: Voltage-gated inwardly rectifying potassium channel KCNH2 (Homo sapiens, UniProt Q12809); assay: Inhibition of human ERG by electrophysiological analysis
[5] = Aqueous solubility in PBS buffer at pH 7.4 after 24 hrs by LC-UV analysis; type: physicochemical
[6] = Apparent permeability from apical to basolateral side in MDCK cells; type: ADME, cell-based, Canis lupus familiaris; conditions: dog
[7] = Volume of distribution at steady state in rat; type: ADME, organism-based; conditions: in vivo, read-out: Vdss
[8] = Oral bioavailability in rat; type: ADME, organism-based; conditions: in vivo
[9] = Clearance in dog; type: ADME, organism-based, Canis lupus familiaris; conditions: in vivo
Canis familiaris = species: Canis familiaris; assay: Unbound clearance in dog; type: ADME, organism-based, Canis lupus familiaris; conditions: in vivo
[10] = Volume of distribution at steady state in dog; type: ADME, organism-based, Canis lupus familiaris; conditions: in vivo, read-out: Vdss
[11] = Oral bioavailability in dog; type: ADME, organism-based, Canis lupus familiaris; conditions: in vivo
Rattus norvegicus [12] = assay: Glucose lowering activity in Zucker rat at 3 mg/kg, po after 24 hrs; type: functional, organism-based; design: dose 3 mg/kg
Hepatocyte = assay: Intrinsic clearance in rat hepatocytes measured per […] cells; type: ADME, cell-based
[13] = Half life in rat plasma; type: ADME, cell-free
[14] = Half life at pH 6; type: physicochemical; conditions: buffer

Voltage-gated inwardly rectifying potassium channel KCNH2, sequence (Q12809 whole entry): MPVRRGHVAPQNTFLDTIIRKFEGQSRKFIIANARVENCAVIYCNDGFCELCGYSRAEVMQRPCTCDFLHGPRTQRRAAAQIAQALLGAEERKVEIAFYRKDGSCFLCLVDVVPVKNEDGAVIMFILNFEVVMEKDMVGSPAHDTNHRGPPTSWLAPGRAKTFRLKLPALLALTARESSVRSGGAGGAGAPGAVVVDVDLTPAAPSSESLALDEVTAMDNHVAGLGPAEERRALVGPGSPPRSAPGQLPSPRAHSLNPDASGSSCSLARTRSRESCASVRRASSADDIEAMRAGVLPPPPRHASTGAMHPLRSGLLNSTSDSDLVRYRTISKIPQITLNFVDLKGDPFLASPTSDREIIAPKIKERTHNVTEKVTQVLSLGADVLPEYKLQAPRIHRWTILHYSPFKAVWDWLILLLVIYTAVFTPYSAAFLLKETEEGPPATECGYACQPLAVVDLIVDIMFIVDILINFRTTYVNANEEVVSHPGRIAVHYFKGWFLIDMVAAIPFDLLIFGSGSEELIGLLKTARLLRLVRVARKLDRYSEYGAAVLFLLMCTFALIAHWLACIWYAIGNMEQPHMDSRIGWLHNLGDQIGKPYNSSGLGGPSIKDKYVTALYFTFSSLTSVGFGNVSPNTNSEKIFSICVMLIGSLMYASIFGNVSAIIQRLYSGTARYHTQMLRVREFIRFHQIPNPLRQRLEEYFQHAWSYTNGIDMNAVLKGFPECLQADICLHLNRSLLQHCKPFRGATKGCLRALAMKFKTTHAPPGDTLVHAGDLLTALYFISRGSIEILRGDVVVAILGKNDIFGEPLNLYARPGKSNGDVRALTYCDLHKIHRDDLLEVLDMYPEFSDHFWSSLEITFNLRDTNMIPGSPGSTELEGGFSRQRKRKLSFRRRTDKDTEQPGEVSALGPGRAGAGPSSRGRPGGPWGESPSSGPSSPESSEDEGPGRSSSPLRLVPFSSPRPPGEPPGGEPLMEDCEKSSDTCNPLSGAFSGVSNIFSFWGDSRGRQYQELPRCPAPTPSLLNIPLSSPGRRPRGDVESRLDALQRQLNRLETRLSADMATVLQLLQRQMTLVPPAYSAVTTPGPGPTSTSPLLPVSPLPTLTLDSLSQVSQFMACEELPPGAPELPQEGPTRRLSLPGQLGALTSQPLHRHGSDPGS

Row | logD at 0.5 h [1] | clearance [2] [mL/min/kg] | CL free (Rattus norvegicus [3]) [mL/min/kg] | half-life [13] [min] | EC50 (Hexokinase-4; read-out: pEC50 (converted)) [nM] | SMILES | IC50 [4] [nM] | further results
1 |  |  |  | > 300 |  | COC[C@H](Oc1ncnc2c1cnn2-c1ncccc1Cl)C(=O)Nc1ccc(C)cn1 |  | CLint (Hepatocyte): < 2 µL/min/1e6 cells
2 |  | 11 | 120 | 14 |  | CC(C)OC[C@H](Oc1ncnc2c1cnn2-c1ncccc1Cl)C(=O)Nc1ccc(Cl)cn1 |  | half-life [14]: > 23 days
3 |  | 21 | 81 | 22 |  | CC(C)OC[C@H](Oc1ncnc2c1cnn2-c1ncccc1Cl)C(=O)Nc1ccc(C#N)cn1 |  | half-life [14]: > 23 days
4 |  | 13 | 28 | 115 | 1580 | N#Cc1ccc(NC(=O)[C@H](COCCO)Oc2ncnc3c2cnn3-c2ncccc2Cl)nc1 |  | 
5 | 2.3 | 50 | 190 | 19 | 398 | C[C@H](CO)OC[C@H](Oc1ncnc2c1cnn2-c1ncccc1Cl)C(=O)Nc1ccc(Cl)cn1 |  | half-life [14]: > 23 days
6 | 1.7 | 38 | 76 | 1 | 2510 | C[C@@H](CO)OC[C@H](Oc1ncnc2c1cnn2-c1ncccc1Cl)C(=O)Nc1ccc(F)cn1 | > 100000 | 
7 |  |  | 390 | 17 |  | Cc1ccc(NC(=O)[C@H](COC(C)C)Oc2ncnc3c2cnn3-c2ncccc2Cl)nc1 |  | CLint (Hepatocyte): 66 µL/min/1e6 cells
8 | 1.5 |  |  | 115 | > 100000 | C[C@@H](CO)OC[C@H](Oc1ncnc2c1cnn2-c1ncccc1Cl)C(=O)Nc1ccc(C#N)cn1 |  | 
9 | 2.4 |  |  | 12 | 3160 | C[C@@H](CO)OC[C@H](Oc1ncnc2c1cnn2-c1ncccc1Cl)C(=O)Nc1ccc(Cl)cn1 |  | 
10 |  | 130 | 600 | 7 |  | CC(C)OC[C@H](Oc1ncnc2c1cnn2-c1ncccc1Cl)C(=O)Nc1ccc(F)cn1 |  | half-life [14]: > 23 days
11 | 1.5 | 14 | 29 | 106 |  | C[C@H](CO)OC[C@H](Oc1ncnc2c1cnn2-c1ncccc1Cl)C(=O)Nc1ccc(C#N)cn1 |  | half-life [14]: > 23 days

More lines, now with the values behind:

Row | SMILES | logD at 0.5 h [1] | clearance [2] [mL/min/kg] | CL free (Rattus norvegicus [3]) [mL/min/kg] | half-life [13] [min] | EC50 (Hexokinase-4; read-out: pEC50 (converted)) [nM] | IC50 [4] [nM] | further results
12 | O=C(Nc1ccccn1)[C@H](CN1CC(O)C1)Oc1ncnc2c1cnn2-c1c(F)cccc1Cl | 2.3 | 81 | 250 |  |  |  | 
13 | O=C(Nc1ccc(F)cn1)[C@H](CN1CC(O)C1)Oc1ncnc2c1cnn2-c1ccccc1Cl | 2.3 | 31 | 90 |  |  | 36000 | EC50 (Hexokinase-4; read-out: EC50): 78 nM; solubility at 24 h [5]: > 750 µM; Papp A→B [6]: 9.8 ×10⁻⁶ cm/s; Vd [7]: 1.5 L/kg; bioavailability [8]: 75%; clearance [9]: 51 mL/min/kg; CL free (Canis familiaris): 170 mL/min/kg; Vd [10]: 1.5 L/kg; bioavailability [11]: 12%; Activity (Rattus norvegicus [12]): Active
14 | O=C(Nc1ccc(F)cn1)[C@H](CN1CC(O)C1)Oc1ncnc2c1cnn2-c1ncccc1Cl | 1.3 | 21 | 31 | 62 | 316 | > 100000 | 
15 | O=C(Nc1ccc(Cl)cn1)[C@H](COCCO)Oc1ncnc2c1cnn2-c1ncccc1Cl | 2.1 | 15 | 70 | 31 | 501 | 50100 | 
16 | Cc1cnc(NC(=O)[C@H](CN2CC(O)C2)Oc2ncnc3c2cnn3-c2c(Cl)cccc2Cl)cn1 | 2.3 | 225 | 74 |  |  | 62000 | EC50 (Hexokinase-4; read-out: EC50): 96 nM; solubility at 24 h [5]: > 750 µM; Papp A→B [6]: 3.5 ×10⁻⁶ cm/s; Vd [7]: 1.2 L/kg; bioavailability [8]: 38%; clearance [9]: 18 mL/min/kg; CL free (Canis familiaris): 60 mL/min/kg; Vd [10]: 1.1 L/kg; bioavailability [11]: 87%
17 | C[C@H](CO)OC[C@H](Oc1ncnc2c1cnn2-c1ncccc1Cl)C(=O)Nc1ccc(F)cn1 | 1.7 | 43 | 98 | 16 | 794 | > 100000 | half-life [14]: > 23 days
18 | O=C(Nc1ccc(F)cn1)[C@H](CN1CC(O)C1)Oc1ncnc2c1cnn2-c1c(F)cccc1Cl | 2.3 | 38 | 190 |  | 50.1 | 25100 | 
19 | O=C(Nc1ccc(F)cn1)[C@H](CN1CC(O)C1)Oc1ncnc2c1cnn2-c1c(Cl)cccc1Cl | 2.7 | 42 | 320 |  |  |  | EC50 (Hexokinase-4; read-out: EC50): 49 nM; solubility at 24 h [5]: 80 µM (≈ 41.5 µg/mL); Papp A→B [6]: 7.3 ×10⁻⁶ cm/s; Vd [7]: 1.7 L/kg; bioavailability [8]: 28%; clearance [9]: 30 mL/min/kg; CL free (Canis familiaris): 210 mL/min/kg; Vd [10]: 1.1 L/kg; bioavailability [11]: 32%; Activity (Rattus norvegicus [12]): Active
20 | N#Cc1ccc(NC(=O)[C@H](CN2CC(O)C2)Oc2ncnc3c2cnn3-c2c(Cl)cccc2Cl)nc1 | 2.6 | 64 | 240 |  | 251 |  | 
21 | N#Cc1ccc(NC(=O)[C@H](CN2CC(O)C2)Oc2ncnc3c2cnn3-c2ccccc2Cl)nc1 | 2.1 | 30 | 110 |  | 200 | 10000 | 
22 | Cc1ccc(NC(=O)[C@H](CCO)Oc2ncnc3c2cnn3-c2ncccc2Cl)nc1 | 1.8 | 11 |  | > 300 | 200 |  | 
23 | O=C(Nc1ccc(F)cn1)[C@H](COCCO)Oc1ncnc2c1cnn2-c1c(Cl)cccc1Cl | 2.7 | 15 | 120 |  | 126 | 20000 | 
24 | O=C(Nc1ccccn1)[C@H](CN1CC(O)C1)Oc1ncnc2c1cnn2-c1ccccc1Cl | 2 | 170 | 420 |  | 200 | > 100000 | 
25 | O=C(Nc1ccc(Cl)cn1)[C@H](CN1CC(O)C1)Oc1ncnc2c1cnn2-c1ccccc1Cl | 3.1 | 40 | 310 | 24 | 63.1 | 10000 | 
26 | CCOC[C@H](Oc1ncnc2c1cnn2-c1ncccc1Cl)C(=O)Nc1ccc(C)cn1 |  |  | 340 | 37 |  |  | CLint (Hepatocyte): 12 µL/min/1e6 cells
27 | O=C(Nc1ccc(Cl)cn1)[C@H](CN1CC(O)C1)Oc1ncnc2c1cnn2-c1ncccc1Cl | 2 | 38 | 140 | 45 | 316 | 50100 | 
28 | N#Cc1cccc(Cl)c1-n1ncc2c(O[C@@H](COCCO)C(=O)Nc3ccc(F)cn3)ncnc21 | 2 | 19 | 140 |  | 501 | 63100 | 
29 | O=C(Nc1ccc(Cl)cn1)[C@H](COCCO)Oc1ncnc2c1cnn2-c1ccccc1Cl | 3.1 | 11 | 120 | 86 | 200 |  | 
30 | N#Cc1ccc(NC(=O)[C@H](CN2CC(O)C2)Oc2ncnc3c2cnn3-c2c(Cl)cccc2C#N)nc1 | 1.9 |  |  |  | 501 | 7940 | 
31 | O=C(Nc1ccc(F)cn1)[C@H](COCCO)Oc1ncnc2c1cnn2-c1ccccc1Cl | 2.4 | 45 | 220 |  | 631 | 39800 | 
32 | Cc1cnc(NC(=O)[C@H](CO[C@H](C)CO)Oc2ncnc3c2cnn3-c2c(Cl)cccc2C#N)cn1 | 1.9 | 18 | 39 |  |  | > 100000 | EC50 (Hexokinase-4; read-out: EC50): 78 nM; solubility at 24 h [5]: > 50 µM; Papp A→B [6]: 7.8 ×10⁻⁶ cm/s; Vd [7]: 1.5 L/kg; bioavailability [8]: 100%; clearance [9]: 18 mL/min/kg; CL free (Canis familiaris): 49 mL/min/kg; Vd [10]: 0.9 L/kg; bioavailability [11]: 43%
33 | CC(C)OC[C@H](Oc1ncnc2c1cnn2-c1ccccc1Cl)C(=O)Nc1ccc(Cl)cn1 | > 4.3 | 33 | 1500 | 19 |  | 15800 | 
34 | O=C(Nc1ccc(F)cn1)[C@H](COCCO)Oc1ncnc2c1cnn2-c1c(F)cccc1Cl | 2.5 | 15 | 110 |  | 200 | 31600 | 
35 | Cc1ccc(NC(=O)[C@H](COC2CCC2)Oc2ncnc3c2cnn3-c2ncccc2Cl)nc1 |  |  | 1500 | 10 |  |  | CLint (Hepatocyte): 130 µL/min/1e6 cells
36 | N#Cc1cccc(Cl)c1-n1ncc2c(O[C@@H](CN3CC(O)C3)C(=O)Nc3ccc(F)cn3)ncnc21 | 2 | 32 | 260 |  | 200 |  | 
